Test results reported in patent publication EP3102204B1 (The University Of Mississippi, priority 2014, dated 2015).
Read-outs that look alike come from different tables or passages of the source.

How the values were obtained:
σ-1 receptor [1] = details: cited from earlier work
σ-2 = biological target: T1, σ-2 (Rattus norvegicus, UniProt Q5U3Y7); assay: σ receptor assay: σ-2 binding with [3H]DTG plus (+)-pentazocine; details: for Ki: rat brain homogenates
T1 construct: from tissue; host or cells: rat brain homogenate (membrane protein)
T1 sequence (Q5U3Y7 1-176): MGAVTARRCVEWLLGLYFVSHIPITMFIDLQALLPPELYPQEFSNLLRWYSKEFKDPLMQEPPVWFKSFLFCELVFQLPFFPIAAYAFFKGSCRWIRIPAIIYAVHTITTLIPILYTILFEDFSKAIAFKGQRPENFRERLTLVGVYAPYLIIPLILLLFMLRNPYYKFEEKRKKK
Protocol: (§3) Compounds were evaluated for σ -1 and σ -2 binding in rat brain homogenates. […] The assays were terminated with ice-cold 10 mM Tris-HCl, pH 8.0, followed by two washes through glass fiber filters that were pre-soaked for at least 30 min in 0.5% polyethyleneimine.

Male, Swiss Webster mice [2] = assay: Expression of cocaine-induced sensitization; type: in vivo; details: compound on Day 15 before cocaine 10 mg/kg i.p.
Protocol: Male, Swiss Webster mice were acclimated as detailed above. For five consecutive days (Days 1-5), the mice were pretreated (i.p.) with saline, then challenged 15 min later with cocaine (10mg/kg, i.p.). The total locomotor activity (ambulatory, fine and rearing movements) of the mice was recorded for the next 30 min. A 10 day drug free period followed and on Day 15, the mice were administered saline (i.p.) or compound (0.1-20mg/kg), followed15 min later with cocaine (10mg/kg, i.p.). Locomotor activity was then recorded for the next 30 min.

5-HT2 receptors = assay: Non-σ competition binding assay, [3H]ketanserin; details: rat brain homogenates
Protocol: (§1) Compounds were tested at various non-σ target sites to evaluate selectivity because cocaine interacts with these sites (dopamine, serotonin and norepinephrine transporters) or historic "sigma" ligands interact with them (opioid, NMDA, dopamine D2, 5-HT2 receptors). The compounds were tested in competition binding assays using rat brain homogenates as previously published. […] The results were reported as Ki in nM.

serotonin transporters = assay: Non-σ competition binding assay, [3H]paroxetine; details: rat brain homogenates; read-out: SERT Ki
Protocol: as §1

Male, Swiss Webster mice [3] = assay: Cocaine-induced locomotor activity; type: in vivo; details: pretreatment i.p. 15 min before cocaine 20 mg/kg i.p.
Protocol: Male, Swiss Webster mice were acclimated to the treatment room and then to the chambers of the automated activity monitoring system (San Diego Instruments, San Diego, CA). […] The total locomotor activity (ambulatory, fine and rearing movements) of the mice was recorded for the next 30 min as the number of disruptions made by them in the 16x16 photobeam grid of their testing chamber.

Male, Swiss Webster mice [4] = assay: Methamphetamine-induced dopamine depletions; type: in vivo; details: methamphetamine 5 mg/kg x 4 at 2 hr intervals; striatal dopamine one week later
Protocol: Male, Swiss Webster mice were injected (i.p.) with saline or compound (0-20mg/kg), followed 15 min later with either saline (- METH) or methamphetamine (5mg/kg) at 2hr intervals, a total of four times. Striatal dopamine levels were measured one week later.

Male, Swiss Webster mice [5] = assay: Cocaine-induced convulsions; type: in vivo; details: pretreatment i.p. 15 min before cocaine 70 mg/kg i.p.
dopamine transporters = assay: Non-σ competition binding assay, [3H]WIN35,428; details: rat brain homogenates; read-out: DAT Ki
Protocol: as §1

dopamine D2 receptors = biological target: T2, dopamine D2 receptors (Rattus norvegicus, UniProt P61169); assay: Non-σ competition binding assay, [3H](-)-sulpiride; details: rat brain homogenates
T2 construct: from tissue; host or cells: rat brain homogenate
Protocol: as §1

Male, Swiss Webster mice [6] = assay: Methamphetamine-induced locomotor activity; type: in vivo; details: pretreatment i.p. 15 min before methamphetamine 1 mg/kg i.p.
Protocol: (§2) Male, Swiss Webster mice were acclimated as detailed above. […] The total locomotor activity (ambulatory, fine and rearing movements) of the mice was recorded for the next 30 min as the number of disruptions made by them in the 16x16 photobeam grids surrounding their testing chambers.

NMDA receptors = assay: Non-σ competition binding assay, [3H]TCP; details: rat brain homogenates
Protocol: as §1

[7] = biological target: norepinephrine transporters; assay: Non-σ competition binding assay, [3H]nisoxetine; details: rat brain homogenates; read-out: NET Ki
Protocol: as §1

σ-1 = σ-1 (Rattus norvegicus, UniProt Q9R0C9); assay: σ receptor assay: σ-1 binding with [3H](+)-pentazocine; details: rat brain homogenates; CM table
Protocol: as §3

in vitro [8] = type: in vitro ADME, rat
Protocol: Metabolic stability of AZ_66 (1µM) was performed in Ammonium acetate buffer (50mM, pH 7.4) with Rat liver microsomes (0.5mg) at 37 °C in 0.5ml of incubation mixture. The incubation mixture composed of Ammonium acetate buffer (50mM, pH 7.4), Magnesium chloride (3mM), a NADPH regenerating system consisting of NADP (1mM), glucose-6-phosphate (5mM), and glucose-6-phosphate dehydrogenase (1Unit/mL). The Substrate and microsomes were pre incubated at 37°C for 5 min before starting the reaction. The reactions were started by the addition of regenerating system and carried out at 37°C in a shaking water bath for 60min. The incubations were stopped by adding an equal volume of ice cold acetonitrile at predetermined time points (0, 5, 15, 30, 60 min). The samples were centrifuged for 10min at 4°C and the supernatant was injected into UPLC/MS/MS. Control incubation without NADPH was also performed and these served as 100% value. All microsomal incubations were conducted using the same lot of microsomes.
In vitro half-life and CLint: The percent of the parent compound remaining is plotted versus time. The slope of the line gives the rate constant k for the disappearance of parent compound, from which an in vitro t1/2 can be calculated. CLint can be calculated using the following formula CLint = k(min^−1) × ([V](L))/([P](mg)) = (L/mg×min) [formula] […]

[9] = analytical reverse-phase HPLC
σ-1 receptor [10] = assay: Cell uptake studies in transfected CHO cells; details: at 120 min
Protocol: Control CHO cells (transfected with a vector not containing the σ-1 receptor gene - to serve as a negative control) and CHO cells transfected with a vector containing σ-1 receptor cDNA (to serve as a positive control for σ-1 receptor expression in cells) were used for the uptake assays. […] The incubated cells were subsequently washed, lysed and counted for radioactivity. All collected data were normalized for amount of protein present in each well.
Cells CHO cells were grown in Ham's F-12 medium. For uptake studies CHO cells were transfected using Lipofectamine 2000 (Invitrogen, Carlsbad, CA, USA) and either pcDNA (empty vector, negative control) or σ-1 receptor gene (OPRS1, accession number NM_005866.2, origin, Rockville, MD, USA) following manufacturer's directions. […] Twenty-four hours later, CHO cells were transfected with either 0.8 µg pcDNA (empty vector, control), or 0.8 µg sigma-1 DNA. […] A portion of each lysate (250 µL) was transferred to a glass tube and activity was measured with a Cobra II γ counter (Packard-Perkin Elmer, Waltham, MA, USA). Protein content from each well was measured by Bradford assay. The same protocol was followed for (+)-[^3H]pentazocine, except the activity was measured with a liquid scintillation counter (Beckman Coulter LS 6500, Brea, CA, USA).

σ-1 receptors [11] = biological target: σ-1 receptors (Mus musculus, UniProt O55242); assay: Small-animal PET imaging in mice (brain); type: in vivo
in vitro [12] = type: in vitro ADME; set-up: dose or concentration left out as unconfirmed; details: pH 7.4; mouse liver microsomes, NADPH-generating system, 37 °C
Protocol: The reaction was initiated by adding cofactors and quenched at designated time points (0, 5, 10, 15, 30, 45, 60 min) by the addition of an equal volume of ice-cold acetonitrile (ACN). […].
The basic incubation mixture consisted of 5 mM substrate, 1 mg/mL microsomal protein, 3 mM MgCl2, 1 mM NADP, 5 mM glucose-6-phosphate, 1 IU/mL glucose-6-phosphate dehydrogenase, 100 mM Tris HCl buffer (pH 7.4) in a final volume of 1 mL. The reaction was initiated by adding cofactors and quenched at designated time points (0, 5, 10, 15, 30, 45, 60 min) by addition of an equal volume of ice-cold ACN. The mixture was centrifuged at 3000 rpm for 10 min, and the supernatant was analyzed by UPLC/MS/MS.

σ-1 receptors [13] = assay: In vitro radioligand binding assays of CM304 at sigma receptors; set-up: species or system rat
Protocol: Competition binding assays were performed as previously described. Briefly, radioligands were used to tag the targeted sites under standard conditions.

[14] = pKa by potentiometric titration; type: physicochemical
Protocol: A solution of 0.01 M sodium hydroxide was prepared and the pH measured as 11.9. Similarly, 0.01 M hydrochloric acid solution was prepared and the pH measured as 2.07. […] To the same sample, 0.1 mL portions of hydrochloric acid were added and pH recorded until it became constant. A titration curve was then plotted as pH versus the volume of base/acid added.

Male, Swiss Webster mice [15] = assay: Development of cocaine-induced sensitization; type: in vivo; details: pretreatment Days 1-5, cocaine 10 mg/kg i.p.
Protocol: as §2, with “of” for “surrounding”, “chamber on each of the five days. A 10 day drug-free period followed. On Day 15, all of the mice were pre-administered (i.p.) saline followed by cocaine (10mg/kg, i.p.), and locomotor activity quantified for the next 30 min.” for “chambers.”

Sequence of σ-1 receptors (Mus musculus, UniProt O55242) (O55242 whole entry): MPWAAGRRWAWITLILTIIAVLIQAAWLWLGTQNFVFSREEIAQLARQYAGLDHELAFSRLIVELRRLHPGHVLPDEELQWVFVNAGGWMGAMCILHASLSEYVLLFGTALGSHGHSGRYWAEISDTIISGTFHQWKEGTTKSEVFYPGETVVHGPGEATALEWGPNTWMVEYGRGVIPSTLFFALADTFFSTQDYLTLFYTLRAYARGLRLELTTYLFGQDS
Sequence of σ-1 (Q9R0C9 whole entry): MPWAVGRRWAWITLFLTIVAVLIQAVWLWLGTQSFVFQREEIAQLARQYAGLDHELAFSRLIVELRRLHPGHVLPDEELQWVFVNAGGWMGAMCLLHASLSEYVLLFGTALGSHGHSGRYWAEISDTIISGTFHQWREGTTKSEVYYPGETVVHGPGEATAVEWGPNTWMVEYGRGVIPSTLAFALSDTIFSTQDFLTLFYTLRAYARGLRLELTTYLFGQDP
T2 sequence (P61169 whole entry): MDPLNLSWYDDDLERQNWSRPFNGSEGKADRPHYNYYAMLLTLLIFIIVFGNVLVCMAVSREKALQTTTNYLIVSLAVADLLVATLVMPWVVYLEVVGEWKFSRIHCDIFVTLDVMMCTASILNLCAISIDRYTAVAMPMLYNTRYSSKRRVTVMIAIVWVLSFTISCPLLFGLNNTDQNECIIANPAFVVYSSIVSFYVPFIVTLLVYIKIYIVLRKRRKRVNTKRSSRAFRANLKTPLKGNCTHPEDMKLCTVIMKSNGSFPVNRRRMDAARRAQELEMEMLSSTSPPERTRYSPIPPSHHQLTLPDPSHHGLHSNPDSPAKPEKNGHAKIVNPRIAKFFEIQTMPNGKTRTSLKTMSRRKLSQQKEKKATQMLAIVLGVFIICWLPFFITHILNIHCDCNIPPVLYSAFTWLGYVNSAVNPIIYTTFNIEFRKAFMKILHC

## [17F]CCC1OC2(CCN(Cc3ccccc3)CC2)c2ccccc21 (stereo not shown) [[^18F]fluspidine]
σ-1 receptor [1]; at 60 minutes post injection
  brain level relative to its maximum: 81%
σ-1 receptor [1]; biodistribution in mice, over 2 hours
  reduction in brain uptake: 40%
σ-1 receptor [1]; post injection
  time of maximum uptake in the brain: 30 min

## O=c1sc2ccccc2n1CCCCN1CCN(C2CCCCC2)CC1 [CM 145]
σ-2; CM table, read-out: Ki (nM) […]2
  Ki: 0.39 ± 0.06 nM

## S=c1sc2ccccc2n1CCCCN1CCN(C2CCCCC2)CC1 [CM156]
Male, Swiss Webster mice [2]
  expression of cocaine-induced sensitization (behavioral sensitization): significant attenuation
5-HT2 receptors
  Ki: 1330 ± 159 nM
Serotonin transporters
  Ki: 1400 ± 152 nM
Male, Swiss Webster mice [3]
  attenuation of cocaine-induced locomotor activity: significant attenuation
Male, Swiss Webster mice [4]
  neurotoxic effects resulting from methamphetamine exposures (dopamine depletions): attenuated
Male, Swiss Webster mice [5]
  attenuation of cocaine-induced convulsions: significant attenuation
Dopamine transporters
  Ki: 1175 ± 10 nM
Dopamine D2 receptors
  Ki: 1041 ± 9 nM
Male, Swiss Webster mice [6]
  locomotor stimulant effects of methamphetamine: attenuated
NMDA receptors
  Ki: > 10000 nM
[7]
  Ki: > 10000 nM

## Fc1ccc(-c2cn(CCCCN3CCN(c4ccc(F)cc4)CC3)c3ccccc23)cc1 [CM 350]
σ-1
  Ki: 1200 ± 73.9 nM

## CC(CCCn1c(=O)sc2cc(F)ccc21)N1CCN(C2CCCCC2)CC1 (stereo not shown) [AZ_66]
In vitro [8]; control incubation without NADPH
  loss of substrate in the absence of cofactor: no loss of substrate
In vitro [8]; rat, microsomes, pH 7.4, by 60 min, read-out: added substrate metabolized by microsomes
  metabolised at 1 h, 1 µM: ~25%

## O=c1sc2cc(CCC[18F])ccc2n1CCN1CCCCCC1 [[^18F]FTC-146, 6-(3-fluoropropyl) -3-(2-(azapan-1-yl)ethyl) benzo [d] thiazol-2 (3H) -one]
[9]
  stability of formulated version in saline/ethanol (9:1): at least 5.5 hours
σ-1 receptor [10]
  uptake in cells transfected with σ-1 receptor cDNA versus control CHO cells: 4 fold
σ-1 receptors [11]; at 60 min, pre-treatment with CM304 1 mg/kg 10 minutes prior to radioligand
  reduction of [18F]FTC-146 binding in the brain: 83%
σ-1 receptors [11]; mouse, brain, iv, read-out: maximum uptake in brain
  tissue uptake: ~17 %ID/g

## Fc1ccc(-c2cn(CCCCN3CCN(C4CCCCC4)CC3)c3ccccc23)cc1 [CM 349]
σ-2; CM table, read-out: Ki (nM) […]2
  Ki: 22.6 ± 1.13 nM
σ-1
  Ki: 90.9 ± 12.3 nM

## Cl.O=c1sc2cc(CCCF)ccc2n1CCN1CCCCCC1 [CM304, 3-(2-(azepan-1-yl)ethyl)-6-(3-fluoropropyl)benzo[d]thiazol-2(3H)-one hydrochloride]
Male, Swiss Webster mice [5]
  attenuation of cocaine-induced convulsions: significantly attenuated
In vitro [12]
  half-life: 4.2 min
σ-1 receptors [13]
  Ki: 0.0025 nM
[14]
  experimental pKa: 10.4

## O=c1oc2ccccc2n1CCCCN1CCN(C2CCCCC2)CC1 [CM 121]
σ-2; σ-2 over σ-1
  preference (selectivity) for the σ-2 subtype: six fold

## Cn1c(=O)n(CCCCN2CCN(C3CCCCC3)CC2)c2ccccc21 [CM 396]
σ-2; CM table, read-out: Ki (nM) […]2
  Ki: 2.57 ± 0.47 nM

## CC(C)=CCN1CC[C@]2(C)c3cc(O)ccc3C[C@H]1[C@H]2C [(+)-[^3H] pentazocine, reference compound]
σ-1 receptor [10]
  uptake in cells transfected with σ-1 receptor cDNA versus control CHO cells: 3.6 fold

## c1ccc2c(c1)ccn2CCCCN1CCN(C2CCCCC2)CC1 [CM 341]
σ-2; CM table, read-out: Ki (nM) […]2
  Ki: 1.9 ± 0.16 nM

## CC(=O)c1ccc2c(c1)oc(=O)n2CCCCN1CCN(c2ccc(F)cc2)CC1 [SN-79]
Male, Swiss Webster mice [2]
  expression of cocaine-induced sensitization (behavioral sensitization): attenuates the expression of cocaine-induced sensitization
σ-2; SN table, read-out: Ki (nM) σ2
  Ki: 6.06 nM
Male, Swiss Webster mice [3]
  attenuation of cocaine-induced locomotor activity: significant attenuation
Male, Swiss Webster mice [5]
  attenuation of cocaine-induced convulsions: significant attenuation
Male, Swiss Webster mice [15]
  development of cocaine-induced sensitization: attenuates the development of cocaine-induced sensitization
